Experimental data from ChEMBL document CHEMBL3734723, “Synthesis and anticancer activity of 6-heteroarylcoumarins” (2015).

Legend:
Format in all cases: functional
NCI-H522 = test: Cytotoxicity against human NCI-H522 cells assessed as cell growth at 10 uM incubated for 48 hrs by sulforhodamine B assay; conditions: NCI-H522, 48 h, read-out: Activity
[1] = Cytotoxicity against human OVCAR8 cells assessed as cell growth at 10 uM incubated for 48 hrs by sulforhodamine B assay; conditions: OVCAR-8, 48 h, read-out: Activity
[2] = Cytotoxicity against human UO31 cells assessed as cell growth at 10 uM incubated for 48 hrs by sulforhodamine B assay; conditions: UO-31, 48 h, read-out: Activity
[3] = Cytotoxicity against human RPMI8226 cells assessed as cell growth at 10 uM incubated for 48 hrs by sulforhodamine B assay; conditions: RPMI-8226, 48 h, read-out: Activity
SK-MEL-5 = test: Cytotoxicity against human SK-MEL-5 cells assessed as cell growth at 10 uM incubated for 48 hrs by sulforhodamine B assay; conditions: SK-MEL-5, 48 h, read-out: Activity
[4] = Cytotoxicity against human SF295 cells assessed as cell growth at 10 uM incubated for 48 hrs by sulforhodamine B assay; conditions: SF-295, 48 h, read-out: Activity
[5] = Cytotoxicity against human UACC62 cells assessed as cell growth at 10 uM incubated for 48 hrs by sulforhodamine B assay; conditions: UACC-62, 48 h, read-out: Activity
[6] = Cytotoxicity against human PC3 cells assessed as cell growth at 10 uM incubated for 48 hrs by sulforhodamine B assay; conditions: PC-3, 48 h, read-out: Activity
T47D = test: Cytotoxicity against human T47D cells assessed as cell growth at 10 uM incubated for 48 hrs by sulforhodamine B assay; conditions: read-out: Activity
CCRF-CEM = test: Cytotoxicity against human CCRF-CEM cells assessed as cell growth at 10 uM incubated for 48 hrs by sulforhodamine B assay; conditions: read-out: Activity
SR = test: Cytotoxicity against human SR cells assessed as cell growth at 10 uM incubated for 48 hrs by sulforhodamine B assay; conditions: read-out: Activity
[7] = Cytotoxicity against human HOP92 cells assessed as cell growth at 10 uM incubated for 48 hrs by sulforhodamine B assay; conditions: HOP-92, 48 h, read-out: Activity
[8] = Cytotoxicity against human HL-60(TB) cells assessed as cell growth at 10 uM incubated for 48 hrs by sulforhodamine B assay; conditions: HL-60, 48 h, read-out: Activity
MDA-MB-468 = test: Cytotoxicity against human MDA-MB-468 cells assessed as cell growth at 10 uM incubated for 48 hrs by sulforhodamine B assay; conditions: MDA-MB-468, 48 h, read-out: Activity
K562 = test: Cytotoxicity against human K562 cells assessed as cell growth at 10 uM incubated for 48 hrs by sulforhodamine B assay; conditions: K562, 48 h, read-out: Activity
[9] = Cytotoxicity against human […] cells assessed as cell growth at 10 uM incubated for 48 hrs by sulforhodamine B assay; conditions: read-out: Activity
[10] = Cytotoxicity against human MOLT4 cells assessed as cell growth at 10 uM incubated for 48 hrs by sulforhodamine B assay; conditions: MOLT-4, 48 h, read-out: Activity
786-0 = test: Cytotoxicity against human 786-0 cells assessed as cell growth at 10 uM incubated for 48 hrs by sulforhodamine B assay; conditions: 786-0, 48 h, read-out: Activity
EKVX = test: Cytotoxicity against human EKVX cells assessed as cell growth at 10 uM incubated for 48 hrs by sulforhodamine B assay; conditions: read-out: Activity
MCF7 = test: Cytotoxicity against human MCF7 cells assessed as cell growth at 10 uM incubated for 48 hrs by sulforhodamine B assay; conditions: MCF7, 48 h, read-out: Activity
KM12 = test: Cytotoxicity against human KM12 cells assessed as cell growth at 10 uM incubated for 48 hrs by sulforhodamine B assay; conditions: KM12, 48 h, read-out: Activity
MDA-MB-435 = test: Cytotoxicity against human MDA-MB-435 cells assessed as cell growth at 10 uM incubated for 48 hrs by sulforhodamine B assay; conditions: MDA-MB-435, 48 h, read-out: Activity
[11] = Cytotoxicity against human LOXIMVI cells assessed as cell growth at 10 uM incubated for 48 hrs by sulforhodamine B assay; conditions: LOX IMVI, read-out: Activity
[12] = Cytotoxicity against human NCI-ADR-RES cells assessed as cell growth at 10 uM incubated for 48 hrs by sulforhodamine B assay; conditions: read-out: Activity
[13] = Cytotoxicity against human OVCAR3 cells assessed as cell growth at 10 uM incubated for 48 hrs by sulforhodamine B assay; conditions: OVCAR-3, 48 h, read-out: Activity
ACHN = test: Cytotoxicity against human ACHN cells assessed as cell growth at 10 uM incubated for 48 hrs by sulforhodamine B assay; conditions: read-out: Activity
A549 = test: Cytotoxicity against human A549 cells assessed as cell growth at 10 uM incubated for 48 hrs by sulforhodamine B assay; conditions: A549, 48 h, read-out: Activity
NCI-H460 = test: Cytotoxicity against human NCI-H460 cells assessed as cell growth at 10 uM incubated for 48 hrs by sulforhodamine B assay; conditions: NCI-H460, 48 h, read-out: Activity
[14] = Cytotoxicity against human OVCAR4 cells assessed as cell growth at 10 uM incubated for 48 hrs by sulforhodamine B assay; conditions: OVCAR-4, 48 h, read-out: Activity
[15] = Cytotoxicity against human HCT116 cells assessed as cell growth at 10 uM incubated for 48 hrs by sulforhodamine B assay; conditions: HCT-116, 48 h, read-out: Activity
NCI-H23 = test: Cytotoxicity against human NCI-H23 cells assessed as cell growth at 10 uM incubated for 48 hrs by sulforhodamine B assay; conditions: NCI-H23, 48 h, read-out: Activity
[16] = Cytotoxicity against human HCT15 cells assessed as cell growth at 10 uM incubated for 48 hrs by sulforhodamine B assay; conditions: HCT-15, 48 h, read-out: Activity
[17] = Cytotoxicity against human HCC2998 cells assessed as cell growth at 10 uM incubated for 48 hrs by sulforhodamine B assay; conditions: HCC 2998, 48 h, read-out: Activity

SMILES: Cc1c(O)c(-c2ccnc(S)n2)cc2c3c(c(=O)oc12)CCCC3
- growth at 10 µM (NCI-H522): 68.8%
- growth at 10 µM [1]: 64.5%
- growth at 10 µM [2]: 60.8%

SMILES: CCCc1cc(=O)oc2c(C)c(O)c(-c3ccc4c(=O)n(-c5ccccc5)nc-4[nH]3)cc12
- growth at 10 µM [3]: 65.8%
- growth at 10 µM (SK-MEL-5): 67.1%
- growth at 10 µM [4]: 69.1%
- growth at 10 µM [5]: 60.6%

SMILES: Cc1c(O)c(-c2cc3ccccc3[nH]2)cc2c3c(c(=O)oc12)CCC3
- growth at 10 µM [6]: 67%
- growth at 10 µM (NCI-H522): 61.6%
- growth at 10 µM [3]: 51.8%
- growth at 10 µM (T47D): 69.8%
- growth at 10 µM [5]: 59.1%

SMILES: CCCCc1cc(=O)oc2c(C)c(O)c(-c3ccnc(NC#N)n3)cc12
- growth at 10 µM (CCRF-CEM): -58.3%

SMILES: CCCCc1cc(=O)oc2c(C)c(O)c(-c3ccnc4nnnn34)cc12
- growth at 10 µM [2]: 89.4%

SMILES: Cc1c(O)c(-c2ccnc(N)n2)cc2c3c(c(=O)oc12)CCC3
- growth at 10 µM (SR): 4.79%
- growth at 10 µM [3]: 55.6%
- growth at 10 µM [7]: -5.18%
- growth at 10 µM (CCRF-CEM): -73.3%
- growth at 10 µM [8]: -34.4%

SMILES: Cc1cc(=O)oc2c(C)c(O)c(-c3cc4ccccc4[nH]3)cc12
- growth at 10 µM [6]: 66.5%
- growth at 10 µM (SR): 65.2%
- growth at 10 µM (MDA-MB-468): 64.3%
- growth at 10 µM (NCI-H522): 58.2%
- growth at 10 µM [3]: 43.8%
- growth at 10 µM (SK-MEL-5): 48.5%
- growth at 10 µM (K562): 59.3%
- growth at 10 µM [2]: 51.8%
- growth at 10 µM [5]: 48.8%

SMILES: CCCc1cc(=O)oc2c(C)c(O)c(-c3ccc(C#N)c(=O)[nH]3)cc12
- growth at 10 µM [9]: 90%

SMILES: Cc1cc(=O)oc2c(C)c(O)c(-c3cc[nH]n3)cc12
- growth at 10 µM [3]: 64.3%
- growth at 10 µM (CCRF-CEM): -68.5%
- growth at 10 µM [8]: -10.9%

SMILES: Cc1cc(=O)oc2c(C)c(O)c(-c3ccnc4nc5ccccc5n34)cc12
- growth at 10 µM (CCRF-CEM): -81.9%

SMILES: Cc1c(O)c(-c2cc[nH]n2)cc2c3c(c(=O)oc12)CCC3
- growth at 10 µM (SR): 16.5%
- growth at 10 µM [7]: 65.7%
- growth at 10 µM (CCRF-CEM): -69.3%
- growth at 10 µM [8]: -20.4%
- growth at 10 µM [10]: -36%

SMILES: Cc1c(O)c(-c2cc3ccccc3[nH]2)cc2c3c(c(=O)oc12)CCCC3
- growth at 10 µM (786-0): 69.9%
- growth at 10 µM [6]: 52.8%
- growth at 10 µM (SR): 60.2%
- growth at 10 µM (EKVX): 60.7%
- growth at 10 µM [9]: 68.8%
- growth at 10 µM (MDA-MB-468): 41.6%
- growth at 10 µM (MCF7): 67.3%
- growth at 10 µM (KM12): 64.8%
- growth at 10 µM (MDA-MB-435): 65.3%
- growth at 10 µM [11]: 68.2%
- growth at 10 µM [12]: 49.2%
- growth at 10 µM [13]: 64.6%
- growth at 10 µM (NCI-H522): 39.6%
- growth at 10 µM [3]: 38.7%
- growth at 10 µM (SK-MEL-5): 52.2%
- growth at 10 µM (ACHN): 66.9%
- growth at 10 µM (K562): 44.3%
- growth at 10 µM [7]: 36.7%
- growth at 10 µM (A549): 58.5%
- growth at 10 µM (NCI-H460): 47.8%
- growth at 10 µM [14]: 61.6%
- growth at 10 µM [15]: 51.7%
- growth at 10 µM (NCI-H23): 31.5%
- growth at 10 µM [16]: 67.3%
- growth at 10 µM [10]: 62.2%
- growth at 10 µM [2]: 44%
- growth at 10 µM [4]: 65.7%
- growth at 10 µM [17]: 53.7%
- growth at 10 µM [5]: 48.2%
